Measurements from patent US7491794B2, “Macrocyclic compounds as inhibitors of viral replication” (Intermune, Inc., priority 2003, dated 2009).
Like-named read-outs stand apart in the source and are kept apart here.

What was measured:
[1] = tested on: HCV sub-genomic replicon, GS4.3; assay: Quantitation by ELISA of NPTII in the HCV sub-genomic replicon, GS4.3, Section B; type: cell-based; details: Hepatitis C virus, read-out: Replicon EC50
Outline: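 GS4.3 cells (HuH-7 carrying HCV 1377/NS3-3′ replicon) were treated 72 h at 37 °C with inhibitors in 3-fold dilutions, 1% DMSO, no G418. Lysate NPTII was measured by ELISA (TMB, 450 nm). Signal as % of DMSO control; EC50 from 4-parameter fit.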

NS3-NS4A protease = target: T1, NS3-NS4A protease (Hepatitis C virus genotype 1a, UniProt P27958); assay: NS3-NS4A protease assay (NS3 inhibition assay, RETS1 substrate), Section B; type: biochemical
T1 construct: Recombinant E. coli or Baculovirus full-length NS3 was diluted to 3.33 μM with assay buffer; made in house; host or cells: E. coli or baculovirus (BV) system
T1 sequence (P27958 1027-1657): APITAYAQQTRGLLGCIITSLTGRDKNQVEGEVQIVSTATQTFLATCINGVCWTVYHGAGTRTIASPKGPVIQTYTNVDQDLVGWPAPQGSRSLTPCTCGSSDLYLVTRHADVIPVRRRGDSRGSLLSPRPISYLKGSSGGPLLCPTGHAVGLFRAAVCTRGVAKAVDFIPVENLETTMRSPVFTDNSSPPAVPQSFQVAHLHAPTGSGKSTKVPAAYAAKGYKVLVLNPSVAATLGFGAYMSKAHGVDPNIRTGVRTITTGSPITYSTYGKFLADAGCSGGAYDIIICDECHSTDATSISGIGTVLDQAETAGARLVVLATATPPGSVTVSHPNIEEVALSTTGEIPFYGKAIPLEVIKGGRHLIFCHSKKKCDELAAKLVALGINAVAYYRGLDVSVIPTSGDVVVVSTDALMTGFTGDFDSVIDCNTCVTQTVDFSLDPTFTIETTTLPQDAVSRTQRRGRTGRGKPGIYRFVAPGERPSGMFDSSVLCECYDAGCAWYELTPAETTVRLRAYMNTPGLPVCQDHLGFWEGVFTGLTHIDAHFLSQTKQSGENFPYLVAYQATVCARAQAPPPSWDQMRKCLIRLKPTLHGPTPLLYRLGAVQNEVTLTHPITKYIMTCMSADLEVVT
Outline: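 Full-length NS3 (E. coli or baculovirus) precomplexed with excess NS4A-2 peptide, run at 2 nM (E. coli) or 3 nM (BV) NS3; compounds pre-incubated 10 min at room temperature before RETS1 substrate. Fluorescence (ex 335/em 495 nm) read kinetically 30 min; IC50 from four-parameter fit, converted to Ki via Ki=IC50/(1+[S]/Km).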

Compound | EC50 ([1]; GS4.3 cells, 72 h incubation) [nM] | IC50 (NS3-NS4A protease) [nM] | IC50 (NS3-NS4A protease; read-out: NS3-NS4A IC50) [nM] | EC50 ([1]; 72 h) [nM]
O=C(N[C@H](C(=O)N[C@H]1CCCCC/C=C\[C@@H]2C[C@@]2(C(=O)NS(=O)(=O)C2CC2)NC(=O)[C@@H]2C[C@@H](OC(=O)N3Cc4cccc(F)c4C3)CN2C1=O)C1CCCCC1)c1cnccn1 [AR00340303, (1S,4R,6S,14S,18R)-4-Fluoro-1,3-dihydro-isoindole-2-carboxylic acid 14-{2-cyclohexyl-2-[(pyrazine-2-carbonyl)-amino]-acetylamino}-4-cyclopropanesulfonylaminocarbonyl-2,15-dioxo-3,16-diaza-tricyclo[14.3.0.0^4,6]nonadec-7-en-18-yl ester] | < 1000 | < 100 |  | 
O=C(N[C@H]1CCCCC/C=C\[C@@H]2C[C@@]2(C(=O)NS(=O)(=O)C2CC2)NC(=O)[C@@H]2C[C@@H](OC(=O)N3CCc4ccccc4C3)CN2C1=O)OC(CF)CF [AR00320580, (1S,4R,6S,14S,18R)-3,4-Dihydro-1H-isoquinoline-2-carboxylic acid 4-cyclopropanesulfonylaminocarbonyl-14-(2-fluoro-1-fluoromethyl-ethoxycarbonylamino)-2,15-dioxo-3,16-diaza-tricyclo[14.3.0.0^4,6]nonadec-7-en-18-yl ester] | < 100 |  | < 100 | 
O=C(N[C@H]1CCCCCC=C[C@@H]2C[C@@]2(C(=O)O)NC(=O)[C@@H]2C[C@@H](OC(=O)N3CCc4cccc(C(F)(F)F)c4C3)CN2C1=O)OC1CCCC1 [AR00304075, (1S,4R,6S,14S,18R)-14-Cyclopentyloxycarbonylamino-2,15-dioxo-18-(8-trifluoromethyl-3,4-dihydro-1H-isoquinoline-2-carbonyloxy)-3,16-diaza-tricyclo[14.3.0.0^4,6]nonadec-7-ene-4-carboxylic acid] | < 10000 |  | < 1000 | 
CC(OC(=O)N[C@H]1CCCCC/C=C\[C@@H]2C[C@@]2(C(=O)NS(=O)(=O)C2CC2)NC(=O)[C@@H]2C[C@@H](OC(=O)N3CCc4ccccc4C3)CN2C1=O)C(F)(F)F (stereo partly drawn) [AR00320581, (1S,4R,6S,14S,18R)-3,4-Dihydro-1H-isoquinoline-2-carboxylic acid 4-cyclopropanesulfonylaminocarbonyl-2,15-dioxo-14-(2,2,2-trifluoro-1-methyl-ethoxycarbonylamino)-3,16-diaza-tricyclo[14.3.0.0^4,6]nonadec-7-en-18-yl ester] | < 100 |  | < 100 | 
COCC1c2ccc(OC)cc2CCN1C(=O)O[C@@H]1CC2C(=O)N[C@]3(C(=O)NS(=O)(=O)C4CC4)C[C@H]3/C=C\CCCCC[C@H](NC(=O)OC(C)(C)C)C(=O)N2C1 (stereo partly drawn) [AR00334339, (1S,4R,6S,14S,18R)-6-Methoxy-1-methoxymethyl-3,4-dihydro-1H-isoquinoline-2-carboxylic acid 14-tert-butoxycarbonylamino-4-cyclopropanesulfonylaminocarbonyl-2,15-dioxo-3,16-diaza-tricyclo[14.3.0.0^4,6]nonadec-7-en-18-yl ester] | < 100 |  | < 100 | 
CC(C)(C)OC(=O)N[C@H]1CCCCC/C=C\[C@@H]2C[C@@]2(C(=O)NS(=O)(=O)C2CC2)NC(=O)[C@@H]2C[C@@H](OC(=O)N3CCc4cc(F)ccc4C3)CN2C1=O [AR00301751, (1S,4R,6S,14S,18R)-6-Fluoro-3,4-dihydro-1H-isoquinoline-2-carboxylic acid 14-tert-butoxycarbonylamino-4-cyclopropanesulfonylaminocarbonyl-2,15-dioxo-3,16-diaza-tricyclo[14.3.0.0^4,6]nonadec-7-en-18-yl ester] | < 100 |  | < 100 | 
CC(C)[C@@H](NC(=O)c1cnccn1)C(=O)N[C@H]1CCCCC/C=C\[C@@H]2C[C@@]2(C(=O)O)NC(=O)[C@@H]2C[C@@H](OC(=O)N3CCc4ccccc4C3)CN2C1=O [AR00301338, (1S,4R,6S,14S,18R)-18-(3,4-Dihydro-1H-isoquinoline-2-carbonyloxy)-14-{3-methyl-2-[(pyrazine-2-carbonyl)-amino]-butyrylamino}-2,15-dioxo-3,16-diaza-tricyclo[14.3.0.0^4,6]nonadec-7-ene-4-carboxylic acid] |  | < 100 |  | < 10000
CC(C)(C)OC(=O)N[C@H]1CCCCC/C=C\[C@@H]2C[C@@]2(C(=O)O)NC(=O)[C@@H]2C[C@@H](NC(=S)N3CCc4ccccc4C3)CN2C1=O [AR00304010, (1S,4R,6S,14S,18R)-14-tert-Butoxycarbonylamino-18-[(3,4-dihydro-1H-isoquinoline-2-carbothioyl)-amino]-2,15-dioxo-3,16-diaza-tricyclo[14.3.0.0^4,6]nonadec-7-ene-4-carboxylic acid] | < 10000 |  | < 1000 | 
CC(C)(C)OC(=O)N[C@H]1CCCCC/C=C\[C@@H]2C[C@@]2(C(=O)NS(=O)(=O)C2CC2)NC(=O)[C@@H]2C[C@@H](OC(=O)N3Cc4ccc(N)cc4C3)CN2C1=O [AR00334286, (1S,4R,6S,14S,18R)-5-Amino-1,3-dihydro-isoindole-2-carboxylic acid 14-tert-butoxycarbonylamino-4-cyclopropanesulfonylaminocarbonyl-2,15-dioxo-3,16-diaza-tricyclo[14.3.0.0^4,6]nonadec-7-en-18-yl ester] | < 100 |  | < 100 | 
CN1CCN(c2ccc3c(c2)CN(C(=O)O[C@@H]2C[C@H]4C(=O)N[C@]5(C(=O)NS(=O)(=O)C6CC6)C[C@H]5/C=C\CCCCC[C@H](NC(=O)OC(C)(C)C)C(=O)N4C2)C3)CC1 [AR00340495, (1S,4R,6S,14S,18R)-5-(4-Methyl-piperazin-1-yl)-1,3-dihydro-isoindole-2-carboxylic acid 14-tert-butoxycarbonylamino-4-cyclopropanesulfonylaminocarbonyl-2,15-dioxo-3,16-diaza-tricyclo[14.3.0.0^4,6]nonadec-7-en-18-yl ester] | < 100 |  | < 100 | 
CC(C)(C)CC(=O)N[C@H]1CCCCC/C=C\[C@@H]2C[C@@]2(C(=O)NS(=O)(=O)C2CC2)NC(=O)[C@@H]2C[C@@H](OC(=O)N3Cc4ccc(Cl)cc4C3)CN2C1=O [AR00334225, (1S,4R,6S,14S,18R)-5-Chloro-1,3-dihydro-isoindole-2-carboxylic acid 4-cyclopropanesulfonylaminocarbonyl-14-(3,3-dimethyl-butyrylamino)-2,15-dioxo-3,16-diaza-tricyclo[14.3.0.0^4,6]nonadec-7-en-18-yl ester] | < 1000 |  | < 100 | 
O=C(NC1CCCC1)N[C@H]1CCCCC/C=C\[C@@H]2C[C@@]2(C(=O)NS(=O)(=O)C2CC2)NC(=O)[C@@H]2C[C@@H](OC(=O)N3CCc4ccccc4C3)CN2C1=O [AR00320403, (1S,4R,6S,14S,18R)-3,4-Dihydro-1H-isoquinoline-2-carboxylic acid 14-(3-cyclopentyl-ureido)-4-cyclopropanesulfonylaminocarbonyl-2,15-dioxo-3,16-diaza-tricyclo[14.3.0.0^4,6]nonadec-7-en-18-yl ester] | < 1000 |  | < 100 | 
O=C(N[C@H]1CCCCC/C=C\[C@@H]2C[C@@]2(C(=O)NS(=O)(=O)C2CC2)NC(=O)[C@@H]2C[C@@H](OC(=O)N3Cc4ccc(Cl)cc4C3)CN2C1=O)O[C@H]1CCOC1 [AR00334220, (1S,4R,6S,14S,18R)-5-Chloro-1,3-dihydro-isoindole-2-carboxylic acid 4-cyclopropanesulfonylaminocarbonyl-2,15-dioxo-14-(tetrahydro-furan-3-yloxycarbonylamino)-3,16-diaza-tricyclo[14.3.0.0^4,6]nonadec-7-en-18-yl ester] | < 1000 |  | < 100 | 
CC(C)[C@@H](NC(=O)c1ccc(N(C)C)nc1)C(=O)N[C@H]1CCCCC/C=C\[C@@H]2C[C@@]2(C(=O)O)NC(=O)[C@@H]2C[C@@H](OC(=O)N3CCc4ccccc4C3)CN2C1=O [AR00304072, (1S,4R,6S,14S,18R)-18-(3,4-Dihydro-1H-isoquinoline-2-carbonyloxy)-14-{2-[(6-dimethylamino-pyridine-3-carbonyl)-amino]-3-methyl-butyrylamino}-2,15-dioxo-3,16-diaza-tricyclo[14.3.0.0^4,6]nonadec-7-ene-4-carboxylic acid] |  | < 1000 |  | < 10000
CC(C)(C)OC(=O)N[C@H]1CCCCC/C=C\[C@@H]2C[C@@]2(C(=O)NS(=O)(=O)c2cccs2)NC(=O)[C@@H]2C[C@@H](OC(=O)N3Cc4ccccc4C3)CN2C1=O [AR00365427, (1S,4R,6S,14S,18R)-1,3-Dihydro-isoindole-2-carboxylic acid 14-tert-butoxycarbonylamino-2,15-dioxo-4-(thiophene-2-sulfonylaminocarbonyl)-3,16-diaza-tricyclo[14.3.0.0^4,6]nonadec-7-en-18-yl ester] | < 100 |  | < 100 | 
CC(C)(C)OC(=O)N[C@H]1CCCCC/C=C\[C@@H]2C[C@@]2(C(=O)NS(=O)(=O)C2CC2)NC(=O)[C@@H]2C[C@@H](OC(=O)N3CCc4ccccc4C3)CN2C1=O [AR00261408, (1S,4R,6S,14S,18R)-3,4-Dihydro-1H-isoquinoline-2-carboxylic acid 14-tert-butoxycarbonylamino-4-cyclopropanesulfonylaminocarbonyl-2,15-dioxo-3,16-diaza-tricyclo[14.3.0.0^4,6]nonadec-7-en-18-yl ester] | < 100 |  | < 100 | 
